Data as given in PubChem BioAssay AID2060912 (Molecular Pharmacology Branch, DTP, NCI, 2025).

Test system: HUVEC/MSC spheroids viability
Assay: Human HUVEC/MSC cell line growth inhibition [KRAS2];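 for viability, T/C: percent of DMSO vehicle control luminescence so 100% = untreated viability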
Details: for viability, T/C: stronger effect = lower value
In short: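 Spheroids of pooled-donor HUVEC and hMSC (passage ≤5) without tumour cells were treated with KRAS-pathway inhibitors alone and combined with targeted agents. Top concentration was at or near clinical Cmax, or 10 microM when Cmax was unknown, descending in half-log steps.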

[1] = curve of first compound, second compound 0.0316 µM
[2] = curve of first compound, second compound 0.1 µM
[3] = curve of first compound, second compound 0.316 µM
[4] = curve of first compound, second compound 1 µM
[5] = curve of first compound, second compound 3.16 µM
[6] = curve of first compound, second compound 10 µM
[7] = second compound 0.0316 µM, first compound 0.0316 µM
[8] = second compound 0.0316 µM, first compound 0.1 µM
[9] = second compound 0.0316 µM, first compound 0.316 µM
[10] = second compound 0.0316 µM, first compound 1 µM
[11] = second compound 0.0316 µM, first compound 3.16 µM
[12] = second compound 0.0316 µM, first compound 10 µM
[13] = second compound 0.1 µM, first compound 0.0316 µM
[14] = second compound 0.1 µM, first compound 0.1 µM
[15] = second compound 0.1 µM, first compound 0.316 µM
[16] = second compound 0.1 µM, first compound 1 µM
[17] = second compound 0.1 µM, first compound 3.16 µM
[18] = second compound 0.1 µM, first compound 10 µM
[19] = second compound 0.316 µM, first compound 0.0316 µM
[20] = second compound 0.316 µM, first compound 0.1 µM
[21] = second compound 0.316 µM, first compound 0.316 µM
[22] = second compound 0.316 µM, first compound 1 µM
[23] = second compound 0.316 µM, first compound 3.16 µM
[24] = second compound 0.316 µM, first compound 10 µM
[25] = second compound 1 µM, first compound 0.0316 µM
[26] = second compound 1 µM, first compound 0.1 µM
[27] = second compound 1 µM, first compound 0.316 µM
[28] = second compound 1 µM, first compound 1 µM
[29] = second compound 1 µM, first compound 3.16 µM
[30] = second compound 1 µM, first compound 10 µM
[31] = second compound 3.16 µM, first compound 0.0316 µM
[32] = second compound 3.16 µM, first compound 0.1 µM
[33] = second compound 3.16 µM, first compound 0.316 µM
[34] = second compound 3.16 µM, first compound 1 µM
[35] = second compound 3.16 µM, first compound 3.16 µM
[36] = second compound 3.16 µM, first compound 10 µM
[37] = second compound 10 µM, first compound 0.0316 µM
[38] = second compound 10 µM, first compound 0.1 µM
[39] = second compound 10 µM, first compound 0.316 µM
[40] = second compound 10 µM, first compound 1 µM
[41] = second compound 10 µM, first compound 3.16 µM
[42] = second compound 10 µM, first compound 10 µM

Compound: COc1cc2nccc(Oc3ccc(NC(=O)C4(C(=O)Nc5ccc(F)cc5)CC4)cc3)c2cc1OC + CNCc1ccccc1-c1csc(C(C)Nc2nc(C)nc3cc(OC)c(OC)cc23)c1
- IC50 [1]: 5900 nM
- IC50 [2]: 5670 nM
- IC50 [3]: 6100 nM
- IC50 [4]: 4980 nM
- IC50 [5]: 1840 nM
- IC50 [6]: < 31.6 nM
- viability, T/C [7]: 87.7%
- viability, T/C [8]: 86.5%
- viability, T/C [9]: 78.2%
- viability, T/C [10]: 65.8%
- viability, T/C [11]: 84.2%
- viability, T/C [12]: 24.3%
- viability, T/C [13]: 67%
- viability, T/C [14]: 88.8%
- viability, T/C [15]: 87%
- viability, T/C [16]: 81%
- viability, T/C [17]: 78.2%
- viability, T/C [18]: 22.7%
- viability, T/C [19]: 86.6%
- viability, T/C [20]: 90.9%
- viability, T/C [21]: 72%
- viability, T/C [22]: 71.2%
- viability, T/C [23]: 81.4%
- viability, T/C [24]: 27.1%
- viability, T/C [25]: 69.6%
- viability, T/C [26]: 67.3%
- viability, T/C [27]: 66.6%
- viability, T/C [28]: 97.6%
- viability, T/C [29]: 99.7%
- viability, T/C [30]: 3.5%
- viability, T/C [31]: 96.7%
- viability, T/C [32]: 104%
- viability, T/C [33]: 108%
- viability, T/C [34]: 115%
- viability, T/C [35]: 0.31%
- viability, T/C [36]: 0.22%
- viability, T/C [37]: 0.36%
- viability, T/C [38]: 0.41%
- viability, T/C [39]: 0.99%
- viability, T/C [40]: 0.46%
- viability, T/C [41]: 0.43%
- viability, T/C [42]: 0.25%

Compound: CCNC(=O)CC1N=C(c2ccc(Cl)cc2)c2cc(OC)ccc2-n2c(C)nnc21 (stereo unspecified)
- viability, T/C (compound 0.0316 µM): 87.2% [middle of 5 runs]
- viability, T/C (compound 0.1 µM): 86.6% [middle of 5 runs]
- IC50 (curve of compound): > 10000 nM

Compound: Cn1nccc1Nc1nccc(-c2cc3c(s2)C(C)(C)N(CCN2CCOCC2)C3=O)n1 + COc1cc2nc(C)nc(NC(C)c3cc(N)cc(C(F)(F)F)c3)c2cc1OC1CCOC1
- IC50 [1]: 2410 nM
- IC50 [2]: 2320 nM
- IC50 [3]: 2560 nM
- IC50 [4]: 2570 nM
- IC50 [5]: 2590 nM
- IC50 [6]: 2220 nM
- viability, T/C [7]: 104%
- viability, T/C [8]: 124%
- viability, T/C [9]: 124%
- viability, T/C [10]: 108%
- viability, T/C [11]: 32.1%
- viability, T/C [12]: 4.35%
- viability, T/C [13]: 90.2%
- viability, T/C [14]: 115%
- viability, T/C [15]: 110%
- viability, T/C [16]: 92.1%
- viability, T/C [17]: 34.4%
- viability, T/C [18]: 4.06%
- viability, T/C [19]: 108%
- viability, T/C [20]: 119%
- viability, T/C [21]: 107%
- viability, T/C [22]: 95%
- viability, T/C [23]: 39.9%
- viability, T/C [24]: 3.01%
- viability, T/C [25]: 85.6%
- viability, T/C [26]: 113%
- viability, T/C [27]: 113%
- viability, T/C [28]: 106%
- viability, T/C [29]: 37.8%
- viability, T/C [30]: 7.24%
- viability, T/C [31]: 92.5%
- viability, T/C [32]: 111%
- viability, T/C [33]: 121%
- viability, T/C [34]: 104%
- viability, T/C [35]: 38.5%
- viability, T/C [36]: 3.79%
- viability, T/C [37]: 72.5%
- viability, T/C [38]: 92.9%
- viability, T/C [39]: 93.5%
- viability, T/C [40]: 88.5%
- viability, T/C [41]: 33.6%
- viability, T/C [42]: 0.79%

Compound: CC(C)n1nc(-c2ccc3oc(N)nc3c2)c2c(N)ncnc21
- viability, T/C (compound 0.001 µM): 68.3% [middle of 5 runs]
- viability, T/C (compound 0.00316 µM): 51.2% [middle of 5 runs]
- viability, T/C (compound 0.01 µM): 47.9% [middle of 5 runs]
- viability, T/C (compound 0.0316 µM): 47.5% [middle of 5 runs]
- viability, T/C (compound 0.1 µM): 43.9% [middle of 5 runs]

Compound: CC(C)n1nc(-c2ccc3oc(N)nc3c2)c2c(N)ncnc21 + C=CC(=O)N1CCN(c2nc(=O)n(-c3c(C)ccnc3C(C)C)c3nc(-c4c(O)cccc4F)c(F)cc23)C(C)C1
- IC50 [1]: 3.06 nM
- IC50 [2]: 9.63 nM
- IC50 [3]: 100 nM
- IC50 [4]: > 100 nM
- IC50 [5]: > 100 nM
- IC50 [6]: > 100 nM
- viability, T/C (second compound 0.0316 µM, first compound 0.000316 µM): 88.3%
- viability, T/C (second compound 0.0316 µM, first compound 0.001 µM): 76.4%
- viability, T/C (second compound 0.0316 µM, first compound 0.00316 µM): 48.8%
- viability, T/C (second compound 0.0316 µM, first compound 0.01 µM): 49.7%
- viability, T/C [7]: 43.2%
- viability, T/C [8]: 44.1%
- viability, T/C (second compound 0.1 µM, first compound 0.000316 µM): 88.7%
- viability, T/C (second compound 0.1 µM, first compound 0.001 µM): 59.8%
- viability, T/C (second compound 0.1 µM, first compound 0.00316 µM): 63.4%
- viability, T/C (second compound 0.1 µM, first compound 0.01 µM): 48.5%
- viability, T/C [13]: 50.4%
- viability, T/C [14]: 36.2%
- viability, T/C (second compound 0.316 µM, first compound 0.000316 µM): 79.4%
- viability, T/C (second compound 0.316 µM, first compound 0.001 µM): 86.6%
- viability, T/C (second compound 0.316 µM, first compound 0.00316 µM): 53.5%
- viability, T/C (second compound 0.316 µM, first compound 0.01 µM): 52.5%
- viability, T/C [19]: 64.4%
- viability, T/C [20]: 50.6%
- viability, T/C (second compound 1 µM, first compound 0.000316 µM): 94%
- viability, T/C (second compound 1 µM, first compound 0.001 µM): 73.1%
- viability, T/C (second compound 1 µM, first compound 0.00316 µM): 65%
- viability, T/C (second compound 1 µM, first compound 0.01 µM): 51.9%
- viability, T/C [25]: 65%
- viability, T/C [26]: 53.5%
- viability, T/C (second compound 3.16 µM, first compound 0.000316 µM): 86.2%
- viability, T/C (second compound 3.16 µM, first compound 0.001 µM): 74.9%
- viability, T/C (second compound 3.16 µM, first compound 0.00316 µM): 66.6%
- viability, T/C (second compound 3.16 µM, first compound 0.01 µM): 60.6%
- viability, T/C [31]: 62.3%
- viability, T/C [32]: 56.4%
- viability, T/C (second compound 10 µM, first compound 0.000316 µM): 75%
- viability, T/C (second compound 10 µM, first compound 0.001 µM): 67.4%
- viability, T/C (second compound 10 µM, first compound 0.00316 µM): 72.9%
- viability, T/C (second compound 10 µM, first compound 0.01 µM): 76.3%
- viability, T/C [37]: 60.4%
- viability, T/C [38]: 54.9%

Compound: COc1cc2nccc(Oc3ccc(NC(=O)C4(C(=O)Nc5ccc(F)cc5)CC4)cc3)c2cc1OC + CC1OCC2(CCN(c3cnc(Sc4ccnc(N)c4Cl)c(N)n3)CC2)C1N
- IC50 [1]: 5720 nM
- IC50 [2]: 4560 nM
- IC50 [3]: 5320 nM
- IC50 [4]: 4100 nM
- IC50 [5]: 3610 nM
- IC50 [6]: 3120 nM
- viability, T/C [7]: 111%
- viability, T/C [8]: 87.5%
- viability, T/C [9]: 79.3%
- viability, T/C [10]: 103%
- viability, T/C [11]: 73.7%
- viability, T/C [12]: 27.6%
- viability, T/C [13]: 96.5%
- viability, T/C [14]: 93%
- viability, T/C [15]: 100%
- viability, T/C [16]: 80.8%
- viability, T/C [17]: 66.5%
- viability, T/C [18]: 17.4%
- viability, T/C [19]: 88.6%
- viability, T/C [20]: 89.9%
- viability, T/C [21]: 67.9%
- viability, T/C [22]: 83%
- viability, T/C [23]: 75%
- viability, T/C [24]: 19.6%
- viability, T/C [25]: 72.6%
- viability, T/C [26]: 75.6%
- viability, T/C [27]: 82.4%
- viability, T/C [28]: 80%
- viability, T/C [29]: 62.3%
- viability, T/C [30]: 8.31%
- viability, T/C [31]: 72.5%
- viability, T/C [32]: 79%
- viability, T/C [33]: 77.5%
- viability, T/C [34]: 62.6%
- viability, T/C [35]: 58.6%
- viability, T/C [36]: 5.57%
- viability, T/C [37]: 67.8%
- viability, T/C [38]: 72%
- viability, T/C [39]: 73.2%
- viability, T/C [40]: 61.9%
- viability, T/C [41]: 50.7%
- viability, T/C [42]: 3.16%
